The numbers were not newly measured in patent US6040300A, “Method of preventing colon cancer with vitamin D3 analogues” (Arch Development Corporation, priority 1995, dated 2000), which cites them from elsewhere.

Data set [1] deals with chemically-induced colonic tumors. Conditions: in vivo; cited from earlier work.
Another data set concerns c-myc mRNA. The settings on record: HL-60 cells; cited from earlier work.
Data set [2] deals with malignant cell lines, including several derived from human colon adenocarcinomas. Conditions: in vitro; cited from earlier work.
The subject of data set [3] is ornithine decarboxylase (ODC). Conditions: induced by various chemical carcinogens, preneoplastic period; cited from earlier work.
The test system of another data set is suppressor T cell. Conditions: cited from earlier work.
The next data set concerns class II antigens. The settings on record: monocytes and lymphocytes; cited from earlier work.
The test system of data set [4] is MHC class I and II antigens. The settings on record: colonic tumor formation, AOM model; cited from earlier work.
For the next data set, the system named is AOM metabolism. Conditions: cited from earlier work.
The test system of data set [5] is colon carcinogenesis induced by 1,2-dimethylhydrazine (DMH). The settings on record: dietary supplementation; high fat diet; cited from earlier work.

`C=C1/C(=C\C=C2/CCC[C@]3(C)[C@@H]([C@H](C)CCCC(C)C)CC[C@@H]23)C[C@@H](O)C[C@@H]1O` [1α(OH)D3, 1α-hydroxyvitamin D3]: the “protection against chemically-induced colonic tumors” value in data set [1] was “protect against the development of chemically-induced colonic tumors”.
Regarding `C=C1/C(=C\C=C2/CCC[C@]3(C)[C@@H]([C@H](C)CCCC(C)(C)O)CC[C@@H]23)C[C@@H](O)C[C@@H]1O` [1α,25(OH)2 D3, 1α,25-dihydroxyvitamin D3], the “c-myc mRNA expression” value in the data set with c-myc mRNA was “decrease c-myc mRNA expression in HL-60 cells”. The “protection against chemically-induced colonic tumors” value in data set [1] was “protect against the development of chemically-induced colonic tumors”. In addition, the inhibition of proliferation entry in data set [2] is “inhibit the proliferation of a number of malignant cell lines in vitro”. Besides, in data set [3], the “inhibition of increase in colonic mucosal ODC” value was “inhibit the increase in colonic mucosal ODC”. Also, the “suppressor T cell activity” value with suppressor T cell was “promote suppressor T cell activity”. Also, the “expression of class II antigens” value in the data set with class II antigens is “effect the expression of class II antigens by monocytes and lymphocytes”.
As for `CN1C(C(=O)Nc2ccccn2)=C(O)c2ccccc2S1(=O)=O` [piroxicam], the “chemopreventive effect paralleled by MHC antigen alterations” value in [4] is recorded as “paralleled by alterations in the expression of these antigens”.
As to `c1cn[nH]c1` [pyrazole], the “inhibition of AOM metabolism” value with AOM metabolism was “inhibition of AOM metabolism”.
As for `C[C@H](CCC(=O)O)[C@H]1CC[C@H]2[C@@H]3[C@@H](O)C[C@@H]4C[C@H](O)CC[C@]4(C)[C@H]3CC[C@]12C` [ursodeoxycholic acid], the “chemopreventive effect paralleled by MHC antigen alterations” value in [4] is “paralleled by alterations in the expression of these antigens”.
For the compound `C=C1CC[C@H](O)C/C1=C/C=C1\CCC[C@]2(C)[C@@H]([C@H](C)CCCC(C)C)CC[C@@H]12` [vitamin D3, cholecalciferol], the “inhibition of colon carcinogenesis incidence” value in data set [5] is “inhibit the incidence of colon carcinogenesis”.
